Source: paper PMC2680759, “Non-Invasive Molecular Imaging of Fibrosis Using a Collagen-Targeted Peptidomimetic of the Platelet Collagen Receptor Glycoprotein VI” (PLoS ONE, 2009)

What was measured:
9O12.2 IgG = assay: SPR, 9O12.2 IgG injected over immobilized B-collagelin; type: binding
Protocol: 9O12.2 IgG was injected over biotin-peptides coupled to an SA-sensorchip in a Biacore 2000 instrument. […] In some experiments, the peptide was reduced by DTT on the sensor chip before the IgG was injected. Competition experiments were performed by mixing the IgG with recombinant soluble GPVI (25 µg.mL^−1). Collagen binding to the peptide was analyzed by injecting type-I collagen (200 µg.mL^−1) onto the peptide-coated sensorchip. Conversely, biotin-peptides (125, 250, 500 and 1000 µg.mL^−1) were perfused over fibrillar collagen immobilized on a CM5-sensorchip.

[1] = biological target: fibrillar type I collagen (Homo sapiens, UniProt P02452+P08123); assay: Solid phase assay on collagen-coated microtitration plates; type: binding; conditions: n = 3
fibrillar type I collagen, sequence (P02452 162-1218 limits assumed): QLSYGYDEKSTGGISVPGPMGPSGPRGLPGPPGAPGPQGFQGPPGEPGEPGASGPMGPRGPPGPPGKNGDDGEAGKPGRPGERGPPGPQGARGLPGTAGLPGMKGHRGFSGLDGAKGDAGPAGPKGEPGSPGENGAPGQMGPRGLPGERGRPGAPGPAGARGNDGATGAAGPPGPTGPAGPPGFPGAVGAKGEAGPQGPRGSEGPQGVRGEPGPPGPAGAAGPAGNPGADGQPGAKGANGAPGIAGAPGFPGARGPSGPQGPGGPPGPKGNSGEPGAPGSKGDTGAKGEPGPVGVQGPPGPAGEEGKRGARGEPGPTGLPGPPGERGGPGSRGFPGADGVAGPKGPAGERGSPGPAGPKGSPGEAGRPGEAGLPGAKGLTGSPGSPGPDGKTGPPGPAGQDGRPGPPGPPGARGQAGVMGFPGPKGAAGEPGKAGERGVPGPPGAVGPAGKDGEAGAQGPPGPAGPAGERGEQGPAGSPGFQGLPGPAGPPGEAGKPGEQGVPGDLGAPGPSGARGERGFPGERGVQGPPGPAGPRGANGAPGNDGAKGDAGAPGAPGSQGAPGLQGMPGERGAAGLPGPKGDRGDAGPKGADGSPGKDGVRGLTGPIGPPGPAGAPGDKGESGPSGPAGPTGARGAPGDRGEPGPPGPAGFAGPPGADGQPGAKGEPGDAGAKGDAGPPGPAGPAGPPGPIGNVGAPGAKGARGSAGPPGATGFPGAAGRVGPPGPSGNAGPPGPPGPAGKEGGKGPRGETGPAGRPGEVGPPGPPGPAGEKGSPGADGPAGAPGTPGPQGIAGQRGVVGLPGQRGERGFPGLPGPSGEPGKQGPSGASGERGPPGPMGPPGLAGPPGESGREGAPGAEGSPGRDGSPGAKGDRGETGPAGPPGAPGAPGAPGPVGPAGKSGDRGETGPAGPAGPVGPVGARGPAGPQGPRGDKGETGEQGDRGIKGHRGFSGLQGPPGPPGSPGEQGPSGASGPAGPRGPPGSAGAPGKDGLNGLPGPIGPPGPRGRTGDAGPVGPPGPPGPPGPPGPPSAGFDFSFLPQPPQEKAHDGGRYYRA
fibrillar type I collagen, sequence (P08123 80-1119 limits assumed): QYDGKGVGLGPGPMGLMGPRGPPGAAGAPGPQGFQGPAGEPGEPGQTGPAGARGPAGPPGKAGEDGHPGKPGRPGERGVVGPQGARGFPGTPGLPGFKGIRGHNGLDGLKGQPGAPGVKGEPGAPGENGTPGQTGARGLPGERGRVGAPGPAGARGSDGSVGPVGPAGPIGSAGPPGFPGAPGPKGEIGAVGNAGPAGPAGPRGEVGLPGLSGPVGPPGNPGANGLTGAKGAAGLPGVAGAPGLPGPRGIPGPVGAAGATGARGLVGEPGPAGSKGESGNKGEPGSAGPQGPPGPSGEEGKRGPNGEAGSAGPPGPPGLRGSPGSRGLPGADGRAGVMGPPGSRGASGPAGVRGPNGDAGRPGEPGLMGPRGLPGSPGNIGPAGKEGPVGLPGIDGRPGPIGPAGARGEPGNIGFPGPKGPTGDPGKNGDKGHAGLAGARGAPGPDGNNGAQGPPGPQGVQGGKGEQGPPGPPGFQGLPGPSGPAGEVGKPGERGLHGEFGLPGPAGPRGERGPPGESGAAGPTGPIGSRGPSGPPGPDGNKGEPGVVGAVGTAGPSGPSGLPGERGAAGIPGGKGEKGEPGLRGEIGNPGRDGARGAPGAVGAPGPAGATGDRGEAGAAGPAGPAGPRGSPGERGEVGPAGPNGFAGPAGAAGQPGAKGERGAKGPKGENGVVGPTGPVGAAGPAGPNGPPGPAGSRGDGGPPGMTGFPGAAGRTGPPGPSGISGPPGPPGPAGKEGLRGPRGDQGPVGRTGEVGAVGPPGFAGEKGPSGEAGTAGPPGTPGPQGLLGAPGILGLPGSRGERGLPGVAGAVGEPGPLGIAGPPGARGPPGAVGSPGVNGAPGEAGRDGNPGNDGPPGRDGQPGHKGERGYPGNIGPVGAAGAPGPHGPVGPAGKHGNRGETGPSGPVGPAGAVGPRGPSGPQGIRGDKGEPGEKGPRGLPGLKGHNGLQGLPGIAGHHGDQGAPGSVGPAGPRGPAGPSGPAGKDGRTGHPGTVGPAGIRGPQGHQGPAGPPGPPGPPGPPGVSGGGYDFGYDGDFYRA
Protocol: Biotin-peptides (50 µg.mL^−1) were incubated on microtitration wells, coated with 1 µg of type-I collagen, convulxin, collagen related peptides, bovine fibrinogen, human fibronectin, rat vitronectin, murine laminin or bovine serum albumin. Bound peptides were detected using HRP-coupled extravidin and the HRP substrate O-phenyl-dianisidine.

[2] = tested on: collagen in sections of rat aorta and tail tendon; assay: Histochemical analysis of rat aorta and tail tendon sections; conditions: frozen sections of rat aorta and tail tendon, biotin-peptide 200 µg/mL, HRP-coupled streptavidin
Protocol: Sections were counter-stained with hematoxylin-eosin (Merck). Collagen was stained using picrosirius red. Sections ([…]) of rat tail tendon were processed as above.

in vivo = conditions: rat, iv
Protocol: (§1) Two types of control animals were used: healthy rats, and healthy rats which had undergone a simple throracotomy (sham-operated). ^99mTc-biotin-collagelin blood kinetics and biodistribution were investigated by counting blood samples (taken from a jugular catheter) for 6 h after i.v. injection, and organs (extracted after sacrifice) 2 h after injection in a gamma-counter, together with aliquots of the injected preparation (CobraII, Packard, Meriden, USA). Ex vivo myocardial labeling and isotopic imaging were performed 4 weeks after the coronary ligature (or throracotomy), when the lesions had had the time to heal.

[3] = tested on: fibrotic myocardial infarction scar; type: in vivo, rat; conditions: directly labeled tracer
Protocol: Myocardial infarction of the left ventricle was induced in rats as follows. Male Wistar rats (CERJ, France) were housed in a controlled environment and fed with a standard rat chow. Myocardial infarction of the left ventricle was induced by ligature of the left descending coronary artery performed under general anesthesia [1 mL.kg^−1 i.p. ketamine (Imalgene 500, Merial) and 0.5 mL.kg^−1 i.p. xylazine (Rompun, Bayer)] and positive pressure ventilation, as described. This protocol was performed under a permit from the French Veterinary Services Directorate.
as §1
For in vivo experiments, radiotracers (70 MBq) were administered i.v. to anesthetized animals (pentobarbital i.p. 6 mg/100 g BW, Ceva Santé Animale, France) within 2 h of radiolabeling. Scintigraphic images were obtained 0–2 h, 4 h, 6 h, 10 h and 24 h after injecting ^99mTc-streptavidin-biotin peptides and 0–3 h after injecting ^99mTc-biotinylated peptides. Planar and tomographic 1-h acquisitions were performed using a dedicated small animal γIMAGER system (Biospace Lab, Paris, France) equipped with 2 parallel low-energy high-resolution collimators (matrix 128×128, 15% energy window centered on 140 KeV). Tracer uptake in the left cardiac area was assessed visually. Two regions of interest were drawn on the scintigrams, over the heart and over the right lung. The mean activity (cpm) per pixel was determined in each region of interest. Then heart-to-lung activity ratios (HLR) were calculated on both planar and transversal tomographic images.

[4] = tested on: rat myocardial scar sections; assay: Ex vivo incubation of myocardial scar sections with radiotracers; conditions: directly Tc-99m-labeled peptides, 120 MBq/ml RPMI, 2 h, p<0.05
Protocol: Rat aorta and rat myocardial scar sections were incubated in the presence of ^99mTc-biotin-collagelin, +/−9012 moAb, or ^99mTc-biotin-control peptide Pc (120 MBq/ml of RPMI) for 2 h. The tissues were then rinsed 5 times for periods of 1 minute, and exposed to the gamma-camera as well as to the instant imager for quantitative autoradiography (Instant Imager, Packard) for 15 h.

[5] = tested on: collagen fibers of the infarct scars; assay: Post mortem autoradiography of frozen myocardial sections; type: in vivo, rat; conditions: directly Tc-99m-labeled peptides, frozen myocardial sections
Protocol: After sacrificing the animals, the heart was removed and frozen, then 20-micrometer thick myocardial sections were cut perpendicular to the short axis of the ventricles in a cryostat, and exposed in a radioimager for 16 h. According to calibration studies performed with activity standards of tissue-equivalent homogenates, 50 counts/mm^2 of ^99m Tc-labeled tracers corresponded to ∼210 kBq/mg in autoradiography. The myocardial sections used for autoradiography, and contiguous heart sections (5 µm) fixed in acetone (−20°C), were stained with hematoxylin-eosin, Masson's trichrome and picrosirius red to determine the location and extent of the fibrotic myocardial scarring.

murine laminin (murine) = murine laminin (murine) (UniProt P19137); assay: SPR; collagelin and laminin

## SGSGCPGRVMHGLHLGDDEGPC (disulfide) [B-collagelin]
9O12.2 IgG; read-out: KD of 9O12.2 IgG binding to immobilized B-collagelin, SPR, Biacore 2000, biotin-peptide on SA-sensorchip, IgG 1.25 to 10 µg/mL, KD = koff/kon
  Kd: 1 µM
[1]; peptide 50 µg/mL, HRP-coupled extravidin detection
  Binding to collagen-coated plates: bound
[2]
  Histochemical staining of tissue collagen: Positive and specific brown staining

## CSCC[C@@H]1NC(=O)[C@H](C(C)C)NC(=O)[C@H](CCCNC(=N)N)NC(=O)CNC(=O)[C@@H]2CCCN2C(=O)[C@@H](NC(=O)CNC(=O)[C@H](CO)NC(=O)CNC(=O)[C@H](CO)NC(=O)CCCC[C@@H]2SC[C@@H]3NC(=O)N[C@@H]32)CSSC[C@@H](C(N)=O)NC(=O)[C@@H]2CCCN2C(=O)CNC(=O)[C@H](CCC(=O)O)NC(=O)[C@H](CC(=O)O)NC(=O)[C@H](CC(=O)O)NC(=O)CNC(=O)[C@H](CC(C)C)NC(=O)[C@H](Cc2c[nH]cn2)NC(=O)[C@H](CC(C)C)NC(=O)CNC(=O)[C@H](Cc2c[nH]cn2)NC1=O [^99mTc-collagelin, metal not drawn]
In vivo
  Blood clearance half life: 5 ± 0.5 min
In vivo; 1 nmol, total radioactivity
  tissue uptake at 2 h: 0.36 %ID/g
[3]; n = 6
  Tracer uptake in the cardiac area, sham-operated rats: No tracer uptake
[3]; planar and SPECT images two hours after injection, all but one of the rats, n = 8
  Probe uptake in the cardiac area, rats with MI scars: significant uptake
[4]
  Ex vivo uptake in scarred tissue of myocardial sections: accumulated in the scarred tissue
[5]
  Autoradiographic labeling of the scar: coincided with the collagen fibers of the scars

## B-collagelin (collagelin conjugated with biotin) (peptide)
Murine laminin (murine)
  Kd: 18.3 µM

B1: GPVI-Fc: soluble recombinant GPVI, extracellular part of GPVI fused to the IgG Fc domain (protein)
chain: QSGPLPKPSLQALPSSLVPLEKPVTLRCQGPPGVDLYRLEKLSSSRYQDQAVLFIPAMKRSLAGRYRCSYQNGSLWSLPSDQLELVATGVFAKPSLSAQPGPAVSSGGDVTLQCQTRYGFDQFALYKEGDPAPYKNPERWYRASFPIITVTAAHSGTYRCYSFSSRDPYLWSAPSDPLELVVTGTSVTPSRLPTEPPSPVAEFSEATAELTVSFTNEVFTTETSRSITASPKESDSPAGPARQYYTK
modifications: left off: Fc (IgG), end not stated, kept
notes: soluble recombinant GPVI, extracellular part of GPVI fused to the IgG Fc domain
9O12.2 IgG; SPR competition, IgG 5 µg/ml mixed with recombinant soluble GPVI 25 µg/ml
  Effect on binding of 9O12.2 IgG to collagelin: inhibited
[1]; competitor 50 µg/mL mixed with B-collagelin 50 µg/mL
  Inhibition of B-collagelin binding to collagen-coated plates: completely inhibited
